System: Caenorhabditis elegans
Test: C. elegans L1 nematicidal dose response in 96-well plates, 5 day visual score (Example 2; same procedure for Example 7, Table 3)
Assay type: in vivo
Set-up: key to 5 Day Visual Score V1 / 5 Day Visual Score V2 / 5 Day Visual Score V3 / 5 Day Visual Score V4 / 5 Day Visual Score V6 / 5 Day Visual Score V5 / Initial HTS Run Visual Score / Follow-up HTS Run Visual Score: Dead: only stiff L1s (no movement); Dead (L4): worms are dead, but at a later larval stage; majority of worms are L1 (based on size) worms move when plate is tapped; majority of worms are L2 (based on size); majority of worms are L3 (based on size); majority of worms are L4 (based on size); AD: majority of worms are adult; #AD: 5 adult worms or less; B!: sterile (0-25 progeny); B: low broodsize (25-100 progeny); ˜B: moderate broodsize (100-250 progeny); <: reduced broodsize (250-500 progeny); OK: no effect (˜1000+ progeny)
Details: for 5 Day Visual Score V1 / 5 Day Visual Score V3 / 5 Day Visual Score V4 / 5 Day Visual Score V5 / 5 Day Visual Score V6 / 5 Day Visual Score V2: dose response
In short: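 Scoring was by eye at 100× on day 5, after incubation at 20° C, of 20 C. elegans L1s per well fed 1% E. coli HB101 in NGM. Compound columns V1–V6 spanned 70 μM to 0.3 μM in 3-fold steps, with 1.4% DMSO in the top well and as control.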

Structure (SMILES) | Follow-up HTS Run % Run [%] | Follow-up HTS Run Visual Score | Follow-up HTS Run mOD [mOD] | Initial HTS Run % Run [%] | Initial HTS Run Visual Score | Initial HTS Run mOD [mOD] | 5 Day Visual Score V1 (dilution V1, day 5) | 5 Day Visual Score V3 (dilution V3, day 5) | 5 Day Visual Score V4 (dilution V4, day 5) | 5 Day Visual Score V5 (dilution V5, day 5) | 5 Day Visual Score V6 (dilution V6, day 5) | 5 Day Visual Score V2 (dilution V2, day 5) | 5 Day Visual Score V1 (dilution V1, 5 day) | 5 Day Visual Score V2 (dilution V2, 5 day) | 5 Day Visual Score V3 (dilution V3, 5 day) | 5 Day Visual Score V4 (dilution V4, 5 day) | 5 Day Visual Score V5 (dilution V5, 5 day) | 5 Day Visual Score V6 (dilution V6, 5 day)
Fc1ccc(N2CCN(c3nc(NCc4c(F)cccc4F)ns3)CC2)cc1 [compound 296] | 109 | L4 | 175 | 96 | L4/AD/B!-Few Eggs | 106 | Dead | B (low broodsize (25-100 progeny)) | OK (no effect (˜1000+ progeny)) | OK (no effect (˜1000+ progeny)) | < (reduced broodsize (250-500 progeny)) |  |  |  |  |  |  | 
CCN(c1nc(NCc2c(F)cccc2F)ns1)C1CCCCC1 [compound 297] | 109 | L4/AD/B | 175 | 104 | L4/AD/B!-Few Eggs | 114 |  | OK (no effect (˜1000+ progeny)) | OK (no effect (˜1000+ progeny)) | OK (no effect (˜1000+ progeny)) | OK (no effect (˜1000+ progeny)) | B (low broodsize (25-100 progeny)) |  |  |  |  |  | 
CCCCN(Cc1ccccc1)c1nc(NCc2c(F)cccc2F)ns1 [compound 298] | 143 |  | 231 | 125 | L2 | 137 | L4#AD/B | OK (no effect (˜1000+ progeny)) | OK (no effect (˜1000+ progeny)) | OK (no effect (˜1000+ progeny)) | OK (no effect (˜1000+ progeny)) | ˜B (moderate broodsize (100-250 progeny)) |  |  |  |  |  | 
CCN(Cc1ccccc1)c1nc(NCc2c(F)cccc2F)ns1 [compound 299] | 115 | L4 | 185 | 105 |  | 116 | L4#AD/B | ˜B (moderate broodsize (100-250 progeny)) | OK (no effect (˜1000+ progeny)) | OK (no effect (˜1000+ progeny)) | OK (no effect (˜1000+ progeny)) | ˜B (moderate broodsize (100-250 progeny)) |  |  |  |  |  | 
C=CCN(CC=C)c1nc(NCc2c(F)cccc2F)ns1 [compound 300] | 108 | L4/AD/B! | 174 | 108 |  | 119 | Dead(L2/L3) | < (reduced broodsize (250-500 progeny)) | OK (no effect (˜1000+ progeny)) | OK (no effect (˜1000+ progeny)) | OK (no effect (˜1000+ progeny)) |  |  |  |  |  |  | 
CN(Cc1ccccc1)c1nc(NCc2c(F)cccc2F)ns1 [compound 301] | 127 | B! (sterile (0-25 progeny)) | 204 | 111 | B!-Few Eggs | 122 |  | OK (no effect (˜1000+ progeny)) | OK (no effect (˜1000+ progeny)) | OK (no effect (˜1000+ progeny)) | OK (no effect (˜1000+ progeny)) | < (reduced broodsize (250-500 progeny)) |  |  |  |  |  | 
FC(F)(F)c1ccc(CNc2nsc(N3CCN(c4ncccn4)CC3)n2)cc1 [compound 303] | 111 |  | 178 | 96 | L3 | 106 | Dead | Dead | OK (no effect (˜1000+ progeny)) | < (reduced broodsize (250-500 progeny)) |  | L1 |  |  |  |  |  | 
Cc1cccc(C)c1N1CCN(c2nc(NCc3ccc(C(F)(F)F)cc3)ns2)CC1 [compound 304] | 107 |  | 172 | 96 | L4/AD/B! | 106 | L1 | OK (no effect (˜1000+ progeny)) | OK (no effect (˜1000+ progeny)) | OK (no effect (˜1000+ progeny)) | < (reduced broodsize (250-500 progeny)) | OK (no effect (˜1000+ progeny)) |  |  |  |  |  | 
CCN(c1nc(NCc2ccc(C(F)(F)F)cc2)ns1)C1CCCCC1 [compound 305] | 112 | L4 | 181 | 102 |  | 112 |  | OK (no effect (˜1000+ progeny)) | OK (no effect (˜1000+ progeny)) | OK (no effect (˜1000+ progeny)) | OK (no effect (˜1000+ progeny)) | < (reduced broodsize (250-500 progeny)) |  |  |  |  |  | 
CCCCCCCCCCCCCCCCCCN(C)c1nc(NCc2ccc(C(F)(F)F)cc2)ns1 [compound 306] | 102 | L1 | 165 | 107 |  | 118 | L1 |  | OK (no effect (˜1000+ progeny)) | OK (no effect (˜1000+ progeny)) | OK (no effect (˜1000+ progeny)) | L1 |  |  |  |  |  | 
CCCCC(CC)CN(CC(CC)CCCC)c1nc(NCc2ccc(C(F)(F)F)cc2)ns1 (stereo not drawn) [compound 307] | 110 | B! (sterile (0-25 progeny)) | 177 | 100 | L4/AD/B | 110 | Dead | OK (no effect (˜1000+ progeny)) | OK (no effect (˜1000+ progeny)) | OK (no effect (˜1000+ progeny)) | OK (no effect (˜1000+ progeny)) |  |  |  |  |  |  | 
CCCCN(CC)c1nc(NCc2ccc(C(F)(F)F)cc2)ns1 [compound 308] | 130 |  | 210 | 112 |  | 123 | L1 | #AD/˜B | OK (no effect (˜1000+ progeny)) | OK (no effect (˜1000+ progeny)) | OK (no effect (˜1000+ progeny)) |  |  |  |  |  |  | 
CCCCN(Cc1ccccc1)c1nc(NCc2ccc(C(F)(F)F)cc2)ns1 [compound 309] | 119 |  | 191 | 106 | L4/AD/B! | 117 | L1 | OK (no effect (˜1000+ progeny)) | OK (no effect (˜1000+ progeny)) | OK (no effect (˜1000+ progeny)) | OK (no effect (˜1000+ progeny)) | B (low broodsize (25-100 progeny)) |  |  |  |  |  | 
CCN(Cc1ccccc1)c1nc(NCc2ccc(C(F)(F)F)cc2)ns1 [compound 310] | 116 |  | 187 | 102 |  | 112 |  |  |  |  |  |  | Dead | B (low broodsize (25-100 progeny)) | ˜B (moderate broodsize (100-250 progeny)) | #AD/˜B | OK (no effect (˜1000+ progeny)) | OK (no effect (˜1000+ progeny))
CC(C)CN(CC(C)C)c1nc(NCc2ccc(C(F)(F)F)cc2)ns1 [compound 311] | 109 | B! (sterile (0-25 progeny)) | 176 | 98 | L4/AD/B! | 108 |  |  |  |  |  |  | L1 | < (reduced broodsize (250-500 progeny)) | OK (no effect (˜1000+ progeny)) | OK (no effect (˜1000+ progeny)) | OK (no effect (˜1000+ progeny)) | OK (no effect (˜1000+ progeny))
C=CCN(CC=C)c1nc(NCc2ccc(C(F)(F)F)cc2)ns1 [compound 312] | 115 |  | 185 | 104 |  | 114 |  |  |  |  |  |  | L1 |  | ˜B (moderate broodsize (100-250 progeny)) | OK (no effect (˜1000+ progeny)) | OK (no effect (˜1000+ progeny)) | OK (no effect (˜1000+ progeny))

From patent US20020002171A1, “Materials and methods for killing nematodes and nematode eggs” (priority 2000, published 2002)
